Results as given in US8536207B2, “Method for treating a keratoconjunctival disorder” (Santen Pharmaceutical Co., Ltd., priority 2005, dated 2013).

What was measured:
[1] = tested on: corneal damage in rats in which the exorbital lacrimal gland was removed; experiment: Test for therapeutic effect on corneal damage using rats in which the exorbital lacrimal gland was removed; type: in vivo, male SD rats; settings: for Improvement ratio (%) of corneal damage: fluorescein staining score vs saline control
Protocol: 1. Test for Therapeutic Effect on Corneal Damage Using Rats in which the Exorbital Lacrimal Gland was Removed
Using male SD rats, corneal disorder models were produced in accordance with the method of Fujihara et al. (Invest. Ophthalmol. Vis. Sci. 42 (1): 96-100 (2001)). After the production of the corneal disorder models, the improvement ratio of corneal damage was evaluated by a method (Journal of the eye 21 (1): 87-90 (2004)) modified from the method of Miyata et al. (Japanese Review of Clinical Ophthalmology 48 (2): 183-188 (1994)).
Male SD rats were systemically anesthetized by an administration of Nembutal. Subsequently, the exorbital lacrimal gland of each rat was removed and a corneal damage was induced over a period of 2 months.
A physiological saline solution containing ebselen (25 μM) was instilled into both eyes 6 times a day for 14 days (one group consisting of 8 animals).
A physiological saline solution containing edaravone (200 μM) was instilled into both eyes 6 times a day for 14 days (one group consisting of 8 animals).
A physiological saline solution containing α-lipoic acid (200 μM) was instilled into both eyes 6 times a day for 14 days (one group consisting of 8 animals).
In a control group, physiological saline was instilled into both eyes 6 times a day for 14 days (one group consisting of 8 animals)
Fourteen days after the start of instillation, the damaged parts of the cornea were stained with fluorescein. For each of the upper, middle and lower parts of the cornea, the degree of fluorescein staining was evaluated by scoring according to the criteria shown below and the improvement ratio of corneal damage was calculated from the mean value of the total scores for each of the above-mentioned parts.
1: Scattered staining (punctate staining being separated)
2: Moderate staining (a part of punctate staining being adjacent)
3: Heavy staining (punctate staining being barely separated)
Incidentally, intermediate values (at intervals of 0.5) were set between the respective scores.
By taking the mean value of the scores for the control group (physiological saline) as a standard (improvement ratio: 0%) and according to the calculation equation shown below, the improvement ratios for the ebselen (25 μM) administration group and the edaravone (200 μM) administration group and α-lipoic acid (200 μM) administration group were calculated, respectively, which are shown in Table 1. Incidentally, the mean value of the scores is a mean of those of 8 cases in each group. Improvement ratio (%)={(control)−(administered compound)}/damage degree×100 Damage degree=(control)−(normal eye)

[2] = tested on: corneal damage in senescence-accelerated mouse model P10 (SAMP10); experiment: Pharmacological test using SAMP10 (corneal damage, fluorescein staining); type: in vivo; settings: for Score of fluorescein staining: mean±standard error, maximum 9 points
Protocol: 2. Pharmacological Test Using SAMP10
Using senescence-accelerated mouse model P10 (hereinafter referred to as SAMP10), an effect of ebselen on a corneal damage was evaluated in accordance with the method of Hirai, Shibagaki et al. (JP-A-2006-104913). Incidentally, as a control animal, SAMR1 with normal senescence was used.
SAMP10 develops a corneal disorder with aging. Accordingly, a corneal damage of female SAMP10 at 16 weeks of age (before a change caused by aging is observed) was evaluated, and then, administration of an ebselen solution or its vehicle was started. At 8 weeks after the start of administration (at 24 weeks of age), the same evaluation was carried out again. In the same manner, a corneal damage of female SAMR1 at 16 weeks of age was evaluated, and thereafter, administration of the above-mentioned vehicle was started. Then, at 8 weeks after the start of administration (at 24 weeks of age), the same evaluation was carried out again.
Ebselen suspensions obtained by suspending it in a 1% (w/v) methyl cellulose aqueous solution (prepared by dissolving methyl cellulose in ultrapure water) at a concentration of 0.45 mg/mL and 4.5 mg/mL respectively were orally administered to female SAMP10 once a day at a dose of 6.67 μL per g of body weight of mouse. The both administration groups were determined to be a 3 mg/kg group and a 30 mg/kg group, respectively. The administration was carried out 5 days a week (Mon, Tue, Wed, Thu, Fri) over a period of 8 weeks. As a control, a 1% (w/v) methyl cellulose aqueous solution was orally administered to SAMP10 in the same manner at a dose of 6.67 μL per g of body weight of mouse. Further, to the control animal, female SAMR1, a 1% (w/v) methyl cellulose aqueous solution was orally administered in the same manner. Incidentally, the number of animals in each group of SAMP10 is 22 eyes (11 mice), and the number of SAMR1 is 16 eyes (8 mice).
The damaged parts of the cornea of SAMP10 and SAMR1 were stained with fluorescein immediately before and at 8 weeks after the start of administration. For each of the upper, middle and lower parts of the cornea, the degree of fluorescein staining was evaluated by scoring according to the evaluation criteria described in “1. Test for therapeutic effect on corneal damage using rat models in which the exorbital lacrimal gland was removed”, and the scoring of the degree of corneal damage (a maximum score of 9 points) was carried out by obtaining the total scores for each of the above-mentioned parts.
Incidentally, the scores in the table are expressed as mean±standard error in each group.

[3] = 200 μM in physiological saline instilled into both eyes 6 times a day for 14 days

| SMILES | Improvement ratio (%) of corneal damage [1, 3] | Improvement ratio (%) of corneal damage ([1]; 25 μM in physiological saline instilled into both eyes 6 times a day for 14 days) | Improvement ratio compared with edaravone and α-lipoic acid ([1]; ebselen 25 μM vs comparators 200 μM, instillation for 14 days) | Staining score compared with the vehicle administration group of SAMP10 ([2]; 3 mg/kg and 30 mg/kg groups, 24 weeks of age, Dunnett's test p < 0.05) | Score of fluorescein staining ([2]; SAMP10, 3 mg/kg group, 16 weeks of age (immediately before start of administration)) | Score of fluorescein staining ([2]; SAMP10, 3 mg/kg oral once a day, 5 days a week for 8 weeks, 24 weeks of age) | Score of fluorescein staining ([2]; SAMP10, 30 mg/kg group, 16 weeks of age (immediately before start of administration)) | Score of fluorescein staining ([2]; SAMP10, 30 mg/kg oral once a day, 5 days a week for 8 weeks, 24 weeks of age) |
| --- | --- | --- | --- | --- | --- | --- | --- | --- |
| CC1=NN(c2ccccc2)C(=O)C1 [Edaravone, 3-methyl-1-phenyl-2-pyrazolin-5-one] | 36.9% |  |  |  |  |  |  |  |
| O=c1c2ccccc2[se]n1-c1ccccc1 [Ebselen, 2-phenyl-1,2-benzisoselenazol-3(2H)-one] |  | 76.5% | more than twice as high | significantly decreased | 2.61 ± 0.38 | 2.95 ± 0.45 | 2.45 ± 0.30 | 2.68 ± 0.33 |
| O=C(O)CCCCC1CCSS1 (stereo in doubt) [α-Lipoic acid, (3R)-1,2-dithiolane-3-pentanoic acid] | 30.8% |  |  |  |  |  |  |  |
